In ChEMBL document CHEMBL1142900, “Biological profile of new apoptotic agents based on 2,4-pyrido[2,3-d]pyrimidine derivatives” (Bioorg Med Chem, 2007):
Active and inactive are the calls of the source. The rule behind the calls is not given here.

Key:
HT-29 [1] = assay: Growth inhibition of human HT29 cells by neutral red assay; format: functional, cell-based
T-24 [2] = assay: Growth inhibition of human T24 cells by neutral red assay; format: functional, cell-based
MDA-MB-231 [3] = assay: Growth inhibition of human MDA-MB-231 cells by neutral red assay; format: functional, cell-based
[4] = Growth inhibition of human HTB26 cells by neutral red assay; format: functional, cell-based
HT-29 [5] = assay: Cell cycle arrest in HT29 cells by accumulation at S phase at 8.9 uM after 10 hrs; format: functional, Homo sapiens
HT-29 [6] = assay: Cell cycle arrest in HT29 cells by accumulation at G2 phase at 8.9 uM after 12 hrs; format: functional, Homo sapiens
HT-29 [7] = assay: Cell cycle arrest in HT29 cells by accumulation at G2/M phase after 24 hrs at 0.89 uM; format: functional, Homo sapiens
HT-29 [8] = assay: Cell cycle arrest in HT29 cells by accumulation at subG1 phase after 24 hrs; format: functional, Homo sapiens
T-24 [9] = assay: Cell cycle arrest in T24 cells by accumulation at subG1 phase at 5 uM after 12 hrs; format: functional, Homo sapiens
HT-29 [10] = assay: Cell cycle arrest in HT29 cells by accumulation at subG1 phase at 8.9 uM after 8 hrs; format: functional, Homo sapiens
T-24 [11] = assay: Effect on apoptosis in T24 cells assessed as DNA fragmentation after 8 hrs; format: functional, cell-based; conditions: Homo sapiens
HT-29 [12] = assay: Cell cycle arrest in HT29 cells by accumulation at G2 phase at 8.9 uM after 8 hrs; format: functional, Homo sapiens
T-24 [13] = assay: Cell cycle arrest in T24 cells by accumulation at G2 phase at 5 uM after 12 hrs; format: functional, Homo sapiens
T-24 [14] = assay: Effect on apoptosis in T24 cells assessed as increase in caspase 3 activation after 48 hrs relative to control by flow cytometry; format: functional, cell-based; conditions: Homo sapiens
HT-29 [15] = assay: Cell cycle arrest in HT29 cells by accumulation at subG1 phase at 8.9 uM after 12 hrs; format: functional, Homo sapiens
T-24 [16] = assay: Cell cycle arrest in T24 cells by accumulation at S phase at 5 uM after 8 hrs; format: functional, Homo sapiens
HT-29 [17] = assay: Effect on apoptosis in HT29 cells assessed as increase in caspase 3 activation after 24 hrs relative to control by flow cytometry; format: functional, cell-based; conditions: Homo sapiens
T-24 [18] = assay: Cell cycle arrest in T24 cells by accumulation at subG1 phase at 5 uM after 10 hrs; format: functional, Homo sapiens
HT-29 [19] = assay: Cell cycle arrest in HT29 cells by accumulation at S phase after 24 hrs; format: functional, Homo sapiens
T-24 [20] = assay: Cell cycle arrest in T24 cells by accumulation at S phase at 5 uM after 12 hrs; format: functional, Homo sapiens
T-24 [21] = assay: Cell cycle arrest in T24 cells by accumulation at G2 phase at 5 uM after 10 hrs; format: functional, Homo sapiens
T-24 [22] = assay: Increase in cell death of T24 cells; format: functional, cell-based; conditions: Homo sapiens, TDE = time-dependent effect
MDA-MB-231 [23] = assay: Increase in cell death of MDA-MB-231 cells; format: functional, cell-based; conditions: Homo sapiens, TDE = time-dependent effect
HT-29 [24] = assay: Effect on apoptosis in HT29 cells assessed as increase in caspase 3 activation after 14 hrs relative to control by flow cytometry; format: functional, cell-based; conditions: Homo sapiens
HT-29 [25] = assay: Cell cycle arrest in HT29 cells by accumulation at G1 phase at 8.9 uM after 8 hrs; format: functional, Homo sapiens
T-24 [26] = assay: Cell cycle arrest in T24 cells by accumulation at S phase after 24 hrs; format: functional, Homo sapiens
HT-29 [27] = assay: Cell cycle arrest in HT29 cells by accumulation at S phase at 8.9 uM after 12 hrs; format: functional, Homo sapiens
T-24 [28] = assay: Effect on apoptosis in T24 cells assessed as increase in caspase 3 activation after 14 hrs relative to control by flow cytometry; format: functional, cell-based; conditions: Homo sapiens
T-24 [29] = assay: Cell cycle arrest in T24 cells by accumulation at subG1 phase at 5 uM after 8 hrs; format: functional, Homo sapiens
HT-29 [30] = assay: Cell cycle arrest in HT29 cells by accumulation at G1 phase after 24 hrs; format: functional, Homo sapiens
T-24 [31] = assay: Cell cycle arrest in T24 cells by accumulation at G2/M phase after 24 hrs at 0.6 uM; format: functional, Homo sapiens
T-24 [32] = assay: Cell cycle arrest in T24 cells by accumulation at G1 phase at 5 uM after 8 hrs; format: functional, Homo sapiens
HT-29 [33] = assay: Cell cycle arrest in HT29 cells by accumulation at subG1 phase at 8.9 uM after 10 hrs; format: functional, Homo sapiens
T-24 [34] = assay: Cell cycle arrest in T24 cells by accumulation at G2 phase at 5 uM after 8 hrs; format: functional, Homo sapiens
T-24 [35] = assay: Cell cycle arrest in T24 cells by accumulation at subG1 phase after 24 hrs; format: functional, Homo sapiens
[36] = Cytotoxicity against CRL8799 cells; format: cell-based; conditions: human
T-24 [37] = assay: Cell cycle arrest in T24 cells by accumulation at G1 phase at 5 uM after 10 hrs; format: functional, Homo sapiens
HT-29 [38] = assay: Effect on apoptosis in HT29 cells assessed as increase in caspase 3 activation after 48 hrs relative to control by flow cytometry; format: functional, cell-based; conditions: Homo sapiens
T-24 [39] = assay: Cell cycle arrest in T24 cells by accumulation at S phase at 5 uM after 10 hrs; format: functional, Homo sapiens
T-24 [40] = assay: Cell cycle arrest in T24 cells by accumulation at G1 phase after 24 hrs; format: functional, Homo sapiens
T-24 [41] = assay: Cell cycle arrest in T24 cells by accumulation at G1 phase at 5 uM after 12 hrs; format: functional, Homo sapiens
Caspase-3 (Homo sapiens) [42] = target: T1, Caspase-3 (Homo sapiens) (UniProt P42574); assay: Effect on MDA-MB-231 cell lysate caspase 3 activity after 24 hrs relative to control by substrate assay; format: cell-based
T1 sequence (whole entry): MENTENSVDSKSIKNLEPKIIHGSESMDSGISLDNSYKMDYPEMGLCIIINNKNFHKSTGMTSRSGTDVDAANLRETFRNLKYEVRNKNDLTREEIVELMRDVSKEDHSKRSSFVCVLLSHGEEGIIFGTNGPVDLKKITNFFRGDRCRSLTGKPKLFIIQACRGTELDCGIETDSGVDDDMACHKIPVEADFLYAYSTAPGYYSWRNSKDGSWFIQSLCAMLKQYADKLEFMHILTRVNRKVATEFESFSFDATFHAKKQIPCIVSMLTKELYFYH

Caspase-3 (Homo sapiens) [43] = target: T1, Caspase-3 (Homo sapiens); assay: Effect on MDA-MB-231 cell lysate caspase 3 activity after 48 hrs relative to control by substrate assay; format: cell-based
HT-29 [44] = assay: Cell cycle arrest in HT29 cells by accumulation at G1 phase at 8.9 uM after 12 hrs; format: functional, Homo sapiens
HT-29 [45] = assay: Increase in cell death of HT29 cells; format: functional, cell-based; conditions: Homo sapiens, TDE = time-dependent effect
[46] = Cytotoxicity against CRL11233 cells; format: cell-based; conditions: human
T-24 [47] = assay: Effect on apoptosis in T24 cells assessed as increase in caspase 3 activation after 24 hrs relative to control by flow cytometry; format: functional, cell-based; conditions: Homo sapiens
HT-29 [48] = assay: Cell cycle arrest in HT29 cells by accumulation at G2 phase at 8.9 uM after 10 hrs; format: functional, Homo sapiens
HT-29 [49] = assay: Cell cycle arrest in HT29 cells by accumulation at G1 phase at 8.9 uM after 10 hrs; format: functional, Homo sapiens
HT-29 [50] = assay: Cell cycle arrest in HT29 cells by accumulation at S phase at 8.9 uM after 8 hrs; format: functional, Homo sapiens
HT-29 [51] = assay: Effect on apoptosis in HT29 cells assessed as DNA fragmentation after 8 hrs; format: functional, cell-based; conditions: Homo sapiens
Caspase-3 (Homo sapiens) [52] = target: T1, Caspase-3 (Homo sapiens); assay: Effect on MDA-MB-231 cell lysate caspase 3 activity after 14 hrs relative to control by substrate assay; format: cell-based

In the case of `CCC1(O)C(=O)OCc2c1cc1n(c2=O)Cc2cc3ccccc3nc2-1` (single isomer, unassigned) [CAMPTOTHECIN], the IC50 (HT-29 [1]) is reported as 14 nM, the IC50 (T-24 [2]) is reported as 6 nM and the IC50 (MDA-MB-231 [3]) is reported as 291 nM.
Molecule `COc1ccc(CNc2nc(NCc3ccc(OC)cc3)c3cccnc3n2)cc1` has an IC50 [4] of 1500 nM, an Activity (HT-29 [5]) of 17% and an Activity (HT-29 [6]) of 33%. The Activity (HT-29 [7]) was 52%, the Activity (HT-29 [8]) was 7% and the Activity (T-24 [9]) was 28%. For the same molecule, the Activity (HT-29 [10]) was 8%, the Activity (T-24 [11]) was “Active” and the Activity (HT-29 [12]) was 38%. The Activity (T-24 [13]) was 36%, the Activity (T-24 [14]) was “Active” and the Activity (HT-29 [15]) was 34%. For the same molecule, the Activity (T-24 [16]) was 13%, the Activity (HT-29 [17]) was “Active” and the Activity (T-24 [18]) was 18%. For the same molecule, the IC50 (HT-29 [1]) was 8900 nM, the IC50 (T-24 [2]) was 5000 nM and the Activity (HT-29 [19]) was 11%. For the same molecule, the Activity (T-24 [20]) was 10%, the Activity (T-24 [21]) was 40% and the Activity (T-24 [22]) was “tde”. The Activity (MDA-MB-231 [23]) was “tde”, the Activity (HT-29 [24]) was “Active” and the Activity (HT-29 [25]) was 35%. For the same molecule, the Activity (T-24 [26]) was 13%, the Activity (HT-29 [27]) was 17% and the Activity (T-24 [28]) was “Active”. It also gave an Activity (T-24 [29]) of 7%, an Activity (HT-29 [30]) of 30% and an Activity (T-24 [31]) of 38%. The Activity (T-24 [32]) was 36%, the Activity (HT-29 [33]) was 25% and the Activity (T-24 [34]) was 43%. For the same molecule, the Activity (T-24 [35]) was 6%, the Activity [36] was “Non-toxic” and the Activity (T-24 [37]) was 28%. The Activity (HT-29 [38]) was “Active”, the Activity (T-24 [39]) was 13% and the Activity (T-24 [40]) was 42%. The Activity (T-24 [41]) was 26%, the Activity (Caspase-3 (Homo sapiens) [42]) was “inactive” and the Activity (Caspase-3 (Homo sapiens) [43]) was “inactive”. The Activity (HT-29 [44]) was 17%, the Activity (HT-29 [45]) was “tde” and the Activity [46] was “Non-toxic”. For the same molecule, the Activity (T-24 [47]) was “Active”, the Activity (HT-29 [48]) was 36% and the Activity (HT-29 [49]) was 22%. For the same molecule, the Activity (HT-29 [50]) was 19%, the Activity (HT-29 [51]) was “Active” and the Activity (Caspase-3 (Homo sapiens) [52]) was “inactive”.
